Measurements: patent publication EP4324461A1, “(E)-N-CINAMOYLAMINOALKANOLES WITH MELANOGENESIS INHIBITORY ACTIVITY” (UNIWERSYTET JAGIELLONSKI, priority 2022, dated 2024)

Assays:
[1] = tested on: Keratinocytes (HaCaT); assay: Safety, LDH test in keratinocytes; format: cell-based; settings: 48 hours, positive control Triton X-100
Protocol: (§1) In order to test the safety of the compounds, both normal human cells were used: keratinocytes (HaCaT), fibroblasts (BJ), primary melanocytes that occur in the skin, as well as human cancer cells: the hepatocarcinoma line HepG2 and the neuroblastoma line SH-SY5Y, which are considered a model for the assessment of hepatocytotoxicity and neurocytotoxicity. The concentrations of the tested compounds in the range of 250-100 µM were used in the studies. The cell lines used in the research were purchased from the American Type Culture Collection (ATCC) and were cultured in media recommended by the manufacturer with the addition of FBS and antibiotics in an incubator ensuring appropriate culture conditions, i.e. humidity, temperature and CO2 concentration. Cells were seeded into multiwell plates and incubated with the test compounds for 48 hours. After this time, MTT and LDH tests were performed to assess cell viability. The MTT test is based on the ability to transform the substrate: [3-(4,5-dimethyl-2-thiazolyl)-2,5-diphenyl-2H-tetrazolium bromide into a colored product only by living cells. The absorbance at 570 nm, which corresponds to the absorption maximum for the product, is directly proportional to cell viability. The LDH test is based on testing the activity of the enzyme lactate dehydrogenase in the culture medium, which is released from cells as a result of damage to the cell membrane, e.g. as a result of cell death. Triton X-100 was used as a positive control in the test. The determination is colorimetric, the substrate is transformed by the released enzyme into a colored product, an increase in absorbance indicates a larger amount of the released enzyme, and thus confirms greater damage to cell membranes. Tables 7 and 8 present the results obtained, which correspond to the viability of cells incubated with the compounds in relation to the viability of cells constituting a control sample, i.e. incubated with the solvent (DMSO) at the same concentration as in the case of the groups tested in the MTT test or in relation to the results obtained for the Triton X-100 positive control in the LDH test. They indicate that the compounds are safe at the concentrations tested. Table 7. Viability of tested normal human cell lines: keratinocytes (HaCaT), fibroblasts (BJ) and primary melanocytes after incubation with the tested compounds - determination in the MTT test (% of solvent control ± SD) and LDH (percentage of positive control - Triton X-100.

[2] = tested on: Hepatocarcinoma HepG2; assay: Safety, MTT test in HepG2; format: cell-based; settings: 48 hours
Protocol: as §1

[3] = tested on: neuroblastoma SH-SY5Y; assay: Safety, MTT test in SH-SY5Y; format: cell-based; settings: 48 hours
Protocol: as §1

[4] = tested on: neuroblastoma SH-SY5Y; assay: Safety, LDH test in SH-SY5Y; format: cell-based; settings: 48 hours, positive control Triton X-100
Protocol: as §1

[5] = tested on: S. typhimurium TA98; assay: Ames microplate test, TA98; format: cell-based, Salmonella typhimurium;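 note: reference level is the mean solvent-control yellow wells plus SD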
Protocol: Bacteria were grown overnight in growth medium.
Table 9. Ames microplate test results.

[6] = tested on: Chinese hamster ovary cell line (CHO-K1); assay: Cytotoxicity in CHO-K1 cells (MTT) before the micronucleus test; format: cell-based; settings: 24 hours
In short: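 CHO-K1 cells in F-12K with 10% FBS, 37 °C, 5% CO2, exposed to compounds for 24 hours. Viability by MTT, relative to DMSO vehicle at matching concentration; used to pick safe concentrations for the micronucleus test.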

[7] = tested on: E. coli WP2; assay: Ames microplate test, E. coli WP2;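 note: bacteria treated 90 min at 37 °C in 24-well plates, then indicator medium dispensed to 384-well plates and incubated 48 h before yellow-well counting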
Protocol: The study used the Ames microplate test (Ames MPF™ Penta 2 by Xenometrix, Allschwil, Switzerland). Growth medium, exposure medium, indicator medium, positive controls, hepatic microsomal fraction, NADP, glucose-6-phosphate, Salmonella typhimurium and Escherichia coli strains were components of the purchased experimental kit. Bacteria were grown overnight in growth medium. They were then exposed to the test compound at the appropriate concentration in exposure medium without or with the rat microsomal fraction S9 in 24-well plates for 90 min at 37 °C with shaking. Then, indicator medium was added to the wells and pipetted into 384-well plates, which were incubated for 48 hours at 37 °C without shaking. Results were assessed by counting the wells in which the medium turned yellow for each experimental condition.

SMILES: O=C(/C=C/c1ccc(Cl)cc1)NCCCCCO [Compound A-111, (2E)-3-(4-chlorophenyl)-N-(5-hydroxypentyl)prop-2-enamide]
- Keratinocytes (HaCaT) LDH ([1]; 100 µM): 4.69 percentage of positive control
- Keratinocytes (HaCaT) LDH ([1]; 150 µM): 4.43 percentage of positive control
- Keratinocytes (HaCaT) LDH ([1]; 200 µM): 6.49 percentage of positive control
- Keratinocytes (HaCaT) LDH ([1]; 250 µM): 13.55 percentage of positive control
- Hepatocarcinoma HepG2 MTT ([2]; 100 µM): 101.10±6.01 % of solvent control
- Hepatocarcinoma HepG2 MTT ([2]; 150 µM): 97.87±3.27 % of solvent control
- Hepatocarcinoma HepG2 MTT ([2]; 200 µM): 98.19±3.27 % of solvent control
- Hepatocarcinoma HepG2 MTT ([2]; 250 µM): 96.27±2.57 % of solvent control
- Neuroblastoma SH-SYSY MTT ([3]; 100 µM): 100.14±3.22 % of solvent control
- Neuroblastoma SH-SYSY MTT ([3]; 150 µM): 99.32±3.36 % of solvent control
- Neuroblastoma SH-SYSY MTT ([3]; 200 µM): 100.55±2.31 % of solvent control
- Neuroblastoma SH-SYSY MTT ([3]; 250 µM): 99.93±4.36 % of solvent control
- Neuroblastoma SH-SYSY LDH ([4]; 100 µM): 4.90 percentage of positive control
- Neuroblastoma SH-SYSY LDH ([4]; 150 µM): 4.61 percentage of positive control
- Neuroblastoma SH-SYSY LDH ([4]; 200 µM): 5.98 percentage of positive control
- Neuroblastoma SH-SYSY LDH ([4]; 250 µM): 6.77 percentage of positive control
- Increase in the number of yellow wells compared to the reference level ([5]; 0.5 mM, +S9): 1.50
- Increase in the number of yellow wells compared to the reference level ([5]; 0.5 mM, without S9): 0.7
- Increase in the number of yellow wells compared to the reference level ([5]; 1.0 mM, +S9): 0.83
- Increase in the number of yellow wells compared to the reference level ([5]; 1.0 mM, without S9): 0.44
- Increase in the number of yellow wells compared to the reference level ([5]; 2.0 mM, +S9): 1.50
- Increase in the number of yellow wells compared to the reference level ([5]; 2.0 mM, without S9): 1.00
- % Viability [mean] ([6]; 100 µM): 86.1%
- % Viability [mean] ([6]; 150 µM): 95.6%
- % Viability [mean] ([6]; 200 µM): 98.6%
- Increase in the number of yellow wells compared to the reference level ([7]; 0.5 mM, +S9): 0.62
- Increase in the number of yellow wells compared to the reference level ([7]; 0.5 mM, without S9): 1.46
- Increase in the number of yellow wells compared to the reference level ([7]; 1.0 mM, +S9): 0.71
- Increase in the number of yellow wells compared to the reference level ([7]; 1.0 mM, without S9): 1.10
- Increase in the number of yellow wells compared to the reference level ([7]; 2.0 mM, +S9): 0.98
- Increase in the number of yellow wells compared to the reference level ([7]; 2.0 mM, without S9): 1.10

SMILES: O=C(/C=C/c1ccccc1)NCCCCCO [Compound A-133, (2E)-N-(5-hydroxypentyl)-3-phenylprop-2-enamide]
- Keratinocytes (HaCaT) LDH ([1]; 100 µM): 3.23 percentage of positive control
- Keratinocytes (HaCaT) LDH ([1]; 150 µM): 3.08 percentage of positive control
- Keratinocytes (HaCaT) LDH ([1]; 200 µM): 6.38 percentage of positive control
- Keratinocytes (HaCaT) LDH ([1]; 250 µM): 19.58 percentage of positive control
- Hepatocarcinoma HepG2 MTT ([2]; 100 µM): 104.96±7.60 % of solvent control
- Hepatocarcinoma HepG2 MTT ([2]; 150 µM): 100.66±7.39 % of solvent control
- Hepatocarcinoma HepG2 MTT ([2]; 200 µM): 99.09±1.60 % of solvent control
- Hepatocarcinoma HepG2 MTT ([2]; 250 µM): 98.92±2.34 % of solvent control
- Neuroblastoma SH-SYSY MTT ([3]; 100 µM): 101.50±3.33 % of solvent control
- Neuroblastoma SH-SYSY MTT ([3]; 150 µM): 100.75±3.01 % of solvent control
- Neuroblastoma SH-SYSY MTT ([3]; 200 µM): 100.62±5.99 % of solvent control
- Neuroblastoma SH-SYSY MTT ([3]; 250 µM): 100.41±1.87 % of solvent control
- Neuroblastoma SH-SYSY LDH ([4]; 100 µM): 5.33 percentage of positive control
- Neuroblastoma SH-SYSY LDH ([4]; 150 µM): 6.93 percentage of positive control
- Neuroblastoma SH-SYSY LDH ([4]; 200 µM): 8.49 percentage of positive control
- Neuroblastoma SH-SYSY LDH ([4]; 250 µM): 13.32 percentage of positive control
- Increase in the number of yellow wells compared to the reference level ([5]; 0.5 mM, +S9): 0.50
- Increase in the number of yellow wells compared to the reference level ([5]; 0.5 mM, without S9): 0.44
- Increase in the number of yellow wells compared to the reference level ([5]; 1.0 mM, +S9): 0.67
- Increase in the number of yellow wells compared to the reference level ([5]; 1.0 mM, without S9): 0.33
- Increase in the number of yellow wells compared to the reference level ([5]; 2.0 mM, +S9): 1.00
- Increase in the number of yellow wells compared to the reference level ([5]; 2.0 mM, without S9): 0.67
- % Viability [mean] ([6]; 100 µM): 94.6%
- % Viability [mean] ([6]; 150 µM): 97.2%
- % Viability [mean] ([6]; 200 µM): 89.1%
- Increase in the number of yellow wells compared to the reference level ([7]; 0.5 mM, +S9): 0.27
- Increase in the number of yellow wells compared to the reference level ([7]; 0.5 mM, without S9): 0.73
- Increase in the number of yellow wells compared to the reference level ([7]; 1.0 mM, +S9): 0.44
- Increase in the number of yellow wells compared to the reference level ([7]; 1.0 mM, without S9): 0.37
- Increase in the number of yellow wells compared to the reference level ([7]; 2.0 mM, +S9): 0.53
- Increase in the number of yellow wells compared to the reference level ([7]; 2.0 mM, without S9): 1.10
